In US11969408B2, “Method for improving mitophagy in subjects” (Amazentis SA, priority 2017, dated 2024):

What was measured:
Type in all cases: in vivo, human
[1] = test system: pyruvate, lactate and glucose in plasma; test: Plasma metabolomics: pyruvate, lactate, glucose plasma levels; conditions: 1000 mg cohort, day −1 to day 28
Experimental: Blood sampling was performed for analysis on plasma at the exact time-points described in the table below: Blood handling procedures: at each time point indicated in the table, a 6 mL blood sample was drawn into K2-EDTA coated tube. The blood samples were gently inverted a few times for complete mixing with the anticoagulant. The exact time of sample collection was recorded on the eCRF. Within 30 minutes following blood collection, each blood sample was centrifuged at 1500 g for 10 minutes at 4° C. 30 minutes after the centrifugation, the top layer of human plasma was transferred into 2 pre-labelled polypropylene tubes, containing approximately 1500 μL of plasma. Blood cells were not transferred. All sample tubes were clearly and appropriately labelled. Tubes were capped immediately from each time point and the plasma was be frozen in an upright position at approximately −80° C. for storage. Measurement of metabolites: Samples were extracted and split into equal parts for analysis on the LC/MS/MS and Polar LC platforms. Proprietary software was used to match ions to an in-house library of standards for metabolite identification and for metabolite quantitation by peak area integration. A total of 781 metabolites were quantified. Metabolomics is the study of known measurable metabolites in a sample. […]

[2] = Plasma pharmacokinetics after single oral dose (clinical study Part A)
Experimental: Part A: The study was a double-blind, randomized, single ascending doses, study in 24 healthy elderly male and female volunteers. Each subject was randomized for two subsequent doses in three cohorts. Part A: Single oral dose administration on D1 of each period according to the randomisation. The administration took place around 8:00 am with around 200 mL tap water, in sitting position, and under fasting conditions. Cohort 1 (8 subjects): 250 mg urolithin A (6 subjects) or placebo (2 subjects) capsule soft gel formulation then 2000 mg urolithin A or placebo capsule soft gel formulation. Cohort 3 (8 subjects): 1000 mg urolithin A (6 subjects) or placebo (2 subjects) capsule soft gel formulation. After single dosing: Cmax, tmax, AUC0-t, AUC0-∞, t1/2 From the plasma concentration-time data, the following pharmacokinetic parameters will be determined, as data permit using non-compartmental methods: maximum observed plasma concentration (Cmax) (ng/mL), time at which maximum observed plasma concentration (tmax) (h), area under the plasma concentration-time curve AUC(0-24h) (ng/mL*h) and AUC(0-∞) (ng/mL*h), and apparent terminal phase half-life (t1/2) (h). Blood sampling was performed for urolithin A concentration measurements at the exact timepoints with an authorised time window described in the table below: At each time point indicated in the table, a 6 mL blood sample was drawn into K2-EDTA coated tube. The blood samples were gently inverted a few times for complete mixing with the anticoagulant. The exact time of sample collection was recorded on the eCRF. Within 30 minutes following blood collection, each blood sample was centrifuged at 1500 g for 10 minutes at 4° C. From the plasma concentration-time data, the following pharmacokinetic parameters were determined, as data permit using non-compartmental methods: maximum observed plasma concentration (Cmax), time at which maximum observed plasma concentration (tmax), area under the plasma concentration-time curve AUC(0-24h) and AUC(0-∞), and apparent terminal phase half-life (t1/2).

[3] = Plasma pharmacokinetics after 28 day daily oral dosing (clinical study Part B)
Experimental: Part B: The study was a double-blinded, randomized, multiple ascending dose study in 36 healthy elderly male and female volunteers. Each subject was randomised to receive study product or placebo for 28 days. Part B: Repeated oral dose administration from day 1 to day 28 according to the randomization. The administration took place around 8:00 am with around 200 mL tap water, in a sitting position, and under fasting conditions. Cohort 3 (12 subjects): 1000 mg urolithin A (9 subjects) or placebo (3 subjects) soft gel capsule formulation for 28 days. After multiple dosing: Cmax, tmax, AUC0-24h, t1/2 From the plasma concentration-time data, the following pharmacokinetic parameters will be determined, as data permit using non-compartmental methods: maximum observed plasma concentration (Cmax) (ng/mL), time at which maximum observed plasma concentration (tmax) (h), area under the plasma concentration-time curve AUC(0-24h) (ng/mL*h) and AUC(0-∞) (ng/mL*h), and apparent terminal phase half-life (t1/2) (h). Blood sampling was performed for urolithin A concentration measurements at the exact timepoints with an authorised time window described in the table below: At each time point indicated in the table, a 6 mL blood sample was drawn into K2-EDTA coated tube. The blood samples were gently inverted a few times for complete mixing with the anticoagulant. The exact time of sample collection was recorded on the eCRF. Within 30 minutes following blood collection, each blood sample was centrifuged at 1500 g for 10 minutes at 4° C. From the plasma concentration-time data, the following pharmacokinetic parameters were determined, as data permit using non-compartmental methods: maximum observed plasma concentration (Cmax), time at which maximum observed plasma concentration (tmax), area under the plasma concentration-time curve AUC(0-24h) and AUC(0-∞), and apparent terminal phase half-life (t1/2).

plasma levels of urolithin A per mg dosed (dose-normalised Cmax and AUC) ([2]; 1000 mg dosage compared with 2000 mg dosage, single oral dose): higher plasma levels | Cmax ([2]; both sexes, human, plasma, single oral dose 1000 mg urolithin A, healthy elderly subjects): 1.92 ng/mL | AUC ([2]; both sexes, human, plasma, single oral dose 1000 mg urolithin A, healthy elderly subjects, read-out: AUC out to 36 hours): 0.0158 µg·h/mL | pharmacokinetics (Cmax and AUC) at 1000 mg compared with 2000 mg ([2]; oral administration, 1000 mg vs 2000 mg dosage): higher Cmax and AUC | pharmacokinetic profile over the 28 day period (mean plasma concentrations 24 h after previous dose) ([3]; 500 mg daily dosage, days 0, 7, 14, 28, 29): stable | Cmax ([3]; both sexes, human, plasma, day 28, daily oral 1000 mg urolithin A for 28 days): 1.97 ng/mL | AUC ([3]; both sexes, human, plasma, day 28, daily oral 1000 mg urolithin A for 28 days, read-out: AUC out to 24 hours): 0.0175 µg·h/mL
SMILES: O=c1oc2cc(O)ccc2c2ccc(O)cc12 [Urolithin A]
pyruvate, lactate and glucose levels in plasma [1]: no significant change
